Experimental data: PubChem BioAssay AID248 (DTP/NCI, 2004)
“And” between values parts separate entries of the source, which are not always exact repeats. Equal values may be shown once. Toxic doses and inconclusive results are not listed.

Tested on: L1210 leukemia ip in BDF1 mice, survival T/C
Assay: NCI In Vivo Anticancer Drug Screen. Data for tumor model L1210 Leukemia (intraperitoneal) in B6D2F1 (BDF1) mice
Details: endpoint: mean survival time, higher = longer survival
Summary of the method: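 Transplanted-tumor mice were given test agent; controls received vehicle only. Survival readings from the two groups were divided (treated over control).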

[1] = dose: 100.0 mg/kg/injection, schedule: Q04DX003 (ip), vehicle: Klucel (hydroxypropylcellulose) (HPC)
[2] = dose: 200.0 mg/kg/injection, schedule: Q04DX003 (ip), vehicle: Klucel (hydroxypropylcellulose) (HPC)
[3] = dose: 400.0 mg/kg/injection, schedule: Q04DX003 (ip), vehicle: Klucel (hydroxypropylcellulose) (HPC)
[4] = dose: 25.0 mg/kg/injection, schedule: Q04DX002 (ip), vehicle: Klucel (hydroxypropylcellulose) (HPC)
[5] = dose: 100.0 mg/kg/injection, schedule: Q01DX009 (ip), vehicle: saline
[6] = dose: 200.0 mg/kg/injection, schedule: Q01DX009 (ip), vehicle: saline
[7] = dose: 100.0 mg/kg/injection, schedule: Q01DX001 (ip), vehicle: carboxymethylcellulose (CMC)
[8] = dose: 200.0 mg/kg/injection, schedule: Q01DX001 (ip), vehicle: carboxymethylcellulose (CMC)
[9] = dose: 100.0 mg/kg/injection, schedule: Q01DX001 (ip), vehicle: saline
[10] = dose: 200.0 mg/kg/injection, schedule: Q01DX001 (ip), vehicle: saline
[11] = dose: 400.0 mg/kg/injection, schedule: Q01DX001 (ip), vehicle: saline
[12] = dose: 100.0 mg/kg/injection, schedule: Q01DX001 (ip), vehicle: acetone
[13] = dose: 100.0 mg/kg/injection, schedule: Q01DX009 (ip), vehicle: saline with Tween-80
[14] = dose: 200.0 mg/kg/injection, schedule: Q01DX009 (ip), vehicle: saline with Tween-80
[15] = dose: 400.0 mg/kg/injection, schedule: Q01DX009 (ip), vehicle: saline with Tween-80
[16] = dose: 100.0 mg/kg/injection, schedule: Q04DX003 (ip), vehicle: saline with Tween-80
[17] = dose: 200.0 mg/kg/injection, schedule: Q04DX003 (ip), vehicle: saline with Tween-80
[18] = dose: 400.0 mg/kg/injection, schedule: Q04DX003 (ip), vehicle: saline with Tween-80
[19] = dose: 100.0 mg/kg/injection, schedule: Q01DX009 (ip), vehicle: Klucel (hydroxypropylcellulose) (HPC)

## CC(C)(C)OC(=O)N1C2C=CC(C2)N1C(=O)OC(C)(C)C
dose: 100.0 mg/kg/injection, schedule: Q01DX001 (ip), vehicle: other
  T/C: 101 % of control
[1]
  T/C: 102 % of control
dose: 200.0 mg/kg/injection, schedule: Q01DX001 (ip), vehicle: other
  T/C: 104 % of control
[2]
  T/C: 98 % of control
dose: 400.0 mg/kg/injection, schedule: Q01DX001 (ip), vehicle: other
  T/C: 96 % of control
[3]
  T/C: 109 % of control

## O=C(C[n+]1ccc2ccccc2c1)c1cccs1
[4]
  T/C: 90 % of control and 91 % of control
dose: 50.0 mg/kg/injection, schedule: Q04DX002 (ip), vehicle: Klucel (hydroxypropylcellulose) (HPC)
  T/C: 95 % of control and 90 % of control
dose: 100.0 mg/kg/injection, schedule: Q04DX002 (ip), vehicle: Klucel (hydroxypropylcellulose) (HPC)
  T/C: 98 % of control

## O=C(O)C1C2c3ccccc3C(C1C(=O)O)[n+]1ccccc12 (stereo not given)
[5]
  T/C: 95 % of control
[6]
  T/C: 103 % of control
dose: 400.0 mg/kg/injection, schedule: Q01DX009 (ip), vehicle: saline
  T/C: 94 % of control

## Cc1c(C)c(C)c(CN/N=C/c2ccncc2)c(C)c1C
[1]
  T/C: 98 % of control
[2]
  T/C: 109 % of control
[3]
  T/C: 101 % of control

## O=c1[nH]nc(-c2ccc3c(c2)Cc2ccccc2-3)c2ccccc12
[7]
  T/C: 100 % of control
[8]
  T/C: 94 % of control
dose: 400.0 mg/kg/injection, schedule: Q01DX001 (ip), vehicle: carboxymethylcellulose (CMC)
  T/C: 97 % of control

## O=C(NC1CCCCC1)c1ccc([N+](=O)[O-])cc1
dose: 100.0 mg/kg/injection, schedule: Q01DX001 (ip), vehicle: Klucel (hydroxypropylcellulose) (HPC)
  T/C: 104 % of control
dose: 200.0 mg/kg/injection, schedule: Q01DX001 (ip), vehicle: Klucel (hydroxypropylcellulose) (HPC)
  T/C: 101 % of control
dose: 400.0 mg/kg/injection, schedule: Q01DX001 (ip), vehicle: Klucel (hydroxypropylcellulose) (HPC)
  T/C: 101 % of control

## c1ccc(-n2ncnn2)cc1
[9]
  T/C: 98 % of control
[10]
  T/C: 95 % of control
[11]
  T/C: 90 % of control

## COP(=O)(NC(C)=O)OC
dose: 100.0 mg/kg/injection, schedule: Q04DX002 (ip), vehicle: saline with Tween-80
  T/C: 108 % of control
dose: 200.0 mg/kg/injection, schedule: Q04DX002 (ip), vehicle: saline with Tween-80
  T/C: 102 % of control
dose: 400.0 mg/kg/injection, schedule: Q04DX002 (ip), vehicle: saline with Tween-80
  T/C: 150 % of control

## COc1ccc(Cl)cc1Cl
dose: 75.0 mg/kg/injection, schedule: Q01DX009 (ip), vehicle: saline
  T/C: 90 % of control
dose: 75.0 mg/kg/injection, schedule: Q04DX003 (ip), vehicle: saline
  T/C: 100 % of control
dose: 150.0 mg/kg/injection, schedule: Q01DX009 (ip), vehicle: saline
  T/C: 86 % of control
dose: 150.0 mg/kg/injection, schedule: Q04DX003 (ip), vehicle: saline
  T/C: 95 % of control
dose: 300.0 mg/kg/injection, schedule: Q01DX009 (ip), vehicle: saline
  T/C: 92 % of control
dose: 300.0 mg/kg/injection, schedule: Q04DX003 (ip), vehicle: saline
  T/C: 90 % of control

## O=[N+]([O-])c1cccn2cnnc12
[12]
  T/C: 92 % of control

## O=C1CCC([N+](=O)[O-])C(c2ccc3ccccc3c2)N1 (stereo not given)
dose: 100.0 mg/kg/injection, schedule: Q01DX001 (ip), vehicle: saline with Tween-80
  T/C: 95 % of control
dose: 200.0 mg/kg/injection, schedule: Q01DX001 (ip), vehicle: saline with Tween-80
  T/C: 95 % of control
dose: 400.0 mg/kg/injection, schedule: Q01DX001 (ip), vehicle: saline with Tween-80
  T/C: 95 % of control

## CC(=O)N1c2cc3ccccc3cc2N(C(C)=O)c2cc3ccccc3cc21
[12]
  T/C: 92 % of control
[13]
  T/C: 103 % of control
dose: 200.0 mg/kg/injection, schedule: Q01DX001 (ip), vehicle: acetone
  T/C: 90 % of control
[14]
  T/C: 106 % of control
dose: 400.0 mg/kg/injection, schedule: Q01DX001 (ip), vehicle: acetone
  T/C: 88 % of control
[15]
  T/C: 95 % of control

## CSc1ccc(NC(=O)Nc2ccccc2C(N)=O)cc1
[5]
  T/C: 108 % of control
dose: 100.0 mg/kg/injection, schedule: Q04DX003 (ip), vehicle: saline
  T/C: 92 % of control
[6]
  T/C: 114 % of control
dose: 200.0 mg/kg/injection, schedule: Q04DX003 (ip), vehicle: saline
  T/C: 98 % of control
dose: 400.0 mg/kg/injection, schedule: Q04DX003 (ip), vehicle: saline
  T/C: 95 % of control

## CCCCC(=O)NC1CCCCC1
dose: 75.0 mg/kg/injection, schedule: Q01DX001 (ip), vehicle: saline
  T/C: 101 % of control
dose: 150.0 mg/kg/injection, schedule: Q01DX001 (ip), vehicle: saline
  T/C: 95 % of control

## CC(=O)OCC(=O)[C@@]1(O)CC[C@H]2[C@@H]3CCC4=CC(=O)C=C[C@]4(C)[C@@]3(F)[C@@H](O)C[C@@]21C
dose: 12.5 mg/kg/injection, schedule: Q01DX009 (ip), vehicle: saline with Tween-80
  T/C: 117 % of control
dose: 25.0 mg/kg/injection, schedule: Q01DX009 (ip), vehicle: saline with Tween-80
  T/C: 101 % of control
dose: 50.0 mg/kg/injection, schedule: Q01DX009 (ip), vehicle: saline with Tween-80
  T/C: 96 % of control

## O=C(O)C(Br)CN1C(=O)c2ccccc2C1=O (stereo not given)
dose: 50.0 mg/kg/injection, schedule: Q01DX009 (ip), vehicle: saline
  T/C: 91 % of control
[5]
  T/C: 95 % of control
[6]
  T/C: 91 % of control

## CC1(C)C(=O)C2(C(=O)O)CCC1C2 (stereo not given)
[13]
  T/C: 93 % of control
[16]
  T/C: 101 % of control
[14]
  T/C: 98 % of control
[17]
  T/C: 101 % of control
[15]
  T/C: 96 % of control
[18]
  T/C: 88 % of control

## Cc1ccc(NS(=O)(=O)c2ccc(F)cc2)c(C)c1
[19]
  T/C: 94 % of control
[1]
  T/C: 100 % of control
dose: 200.0 mg/kg/injection, schedule: Q01DX009 (ip), vehicle: Klucel (hydroxypropylcellulose) (HPC)
  T/C: 94 % of control
[2]
  T/C: 97 % of control
dose: 400.0 mg/kg/injection, schedule: Q01DX009 (ip), vehicle: Klucel (hydroxypropylcellulose) (HPC)
  T/C: 101 % of control
[3]
  T/C: 101 % of control

## CC(=O)c1ccccc1N1CCCCC1
dose: 100.0 mg/kg/injection, schedule: Q04DX002 (ip), vehicle: saline
  T/C: 100 % of control
dose: 200.0 mg/kg/injection, schedule: Q04DX002 (ip), vehicle: saline
  T/C: 89 % of control

## COc1cccc(NC(=S)NN)c1
dose: 12.5 mg/kg/injection, schedule: Q04DX002 (ip), vehicle: Klucel (hydroxypropylcellulose) (HPC)
  T/C: 92 % of control
[4]
  T/C: 117 % of control

## CC(C)(NCc1ccccc1)C(=O)c1ccccc1
dose: 50.0 mg/kg/injection, schedule: Q01DX001 (ip), vehicle: carboxymethylcellulose (CMC)
  T/C: 100 % of control
dose: 50.0 mg/kg/injection, schedule: Q04DX003 (ip), vehicle: Klucel (hydroxypropylcellulose) (HPC)
  T/C: 95 % of control
[7]
  T/C: 102 % of control
[19]
  T/C: 105 % of control
[1]
  T/C: 93 % of control
[8]
  T/C: 90 % of control
[2]
  T/C: 95 % of control

## CCOC(=O)CCC(C(=O)OCC)c1nc2ccccc2[nH]c1=O (stereo not given)
[1]
  T/C: 108 % of control
[2]
  T/C: 108 % of control
[3]
  T/C: 96 % of control

## CC1=C/C(=N/N=c2\ccn(O)cc2C)C=CC1=N
dose: 50.0 mg/kg/injection, schedule: Q04DX002 (sc), vehicle: saline with Tween-80
  T/C: 100 % of control
dose: 100.0 mg/kg/injection, schedule: Q04DX002 (sc), vehicle: saline with Tween-80
  T/C: 100 % of control
dose: 200.0 mg/kg/injection, schedule: Q04DX002 (sc), vehicle: saline with Tween-80
  T/C: 100 % of control
dose: 400.0 mg/kg/injection, schedule: Q04DX002 (sc), vehicle: saline with Tween-80
  T/C: 93 % of control

## O=C1Cc2ncccc2N1
[9]
  T/C: 107 % of control
[10]
  T/C: 100 % of control
[11]
  T/C: 114 % of control

## CNc1ccc(C(=O)c2ccccc2C(=O)O)cc1[N+](=O)[O-]
[13]
  T/C: 92 % of control
[16]
  T/C: 97 % of control
[14]
  T/C: 95 % of control
[17]
  T/C: 89 % of control
[15]
  T/C: 93 % of control
[18]
  T/C: 94 % of control
